Test results from ChEMBL document CHEMBL1255486, “Effect of vicriviroc on the QT/corrected QT interval and central nervous system in healthy subjects” (Antimicrob Agents Chemother, 2010).

Assays:
[1] = AUC (0 to 24 hrs) in healthy human at 250 mg/kg, po once daily for 7 days; type: ADME, organism-based; parameters: time < 24 hr, dose 250 mg/kg, route oral; conditions: plasma
Homo sapiens [2] = experiment: Toxicity in healthy human assessed as nausea at 200 […], po administered as single dose; type: organism-based; parameters: route oral; conditions: in vivo
Homo sapiens [3] = experiment: Toxicity in healthy human assessed as pollakiuria at 300 […], po administered as single dose; type: organism-based; parameters: route oral; conditions: in vivo
Homo sapiens [4] = experiment: Toxicity in healthy human assessed as EEG abnormality at 200 mg/kg, po once daily for 7 days; type: organism-based; parameters: dose 200 mg/kg, route oral; conditions: in vivo, 168 h
[5] = Cmax in healthy human at 150 […], po once daily for 7 days measured after 1 day of last dose; type: ADME, organism-based; parameters: dose 150 mg/kg, route oral; conditions: in vivo
[6] = AUC (0 to 24 hrs) in healthy human at 30 mg/kg, po after 10 days; type: ADME, organism-based; parameters: time < 24 hr, dose 30 mg/kg, route oral; conditions: plasma
Homo sapiens [7] = experiment: Toxicity in healthy human assessed as fatigue at 250 […], po once daily for 7 days; type: organism-based; parameters: route oral; conditions: in vivo, 168 h
Homo sapiens [8] = experiment: Toxicity in healthy human assessed as back pain at 300 mg/kg, po administered as single dose; type: organism-based; parameters: dose 300 mg/kg, route oral; conditions: in vivo
Homo sapiens [9] = experiment: Toxicity in healthy human assessed as pollakiuria at 250 […], po once daily for 7 days; type: organism-based; parameters: route oral; conditions: in vivo, 168 h
[10] = AUC (0 to infinity) in healthy human at 300 mg/kg, po administered as single dose after 1 day; type: ADME, organism-based; parameters: time infinity, dose 300 mg/kg, route oral; conditions: plasma
Homo sapiens [11] = experiment: Toxicity in healthy human assessed as pollakiuria at 150 […], po once daily for 7 days; type: organism-based; parameters: route oral; conditions: in vivo, 168 h
Homo sapiens [12] = experiment: Toxicity in healthy human assessed as nausea at 200 […], po once daily for 7 days; type: organism-based; parameters: route oral; conditions: in vivo, 168 h
Homo sapiens [13] = experiment: Toxicity in healthy human assessed as headache at 250 […], po administered as single dose; type: organism-based; parameters: route oral; conditions: in vivo
[14] = AUC (0 to 24 hrs) in healthy human at 200 mg/kg, po once daily for 7 days; type: ADME, organism-based; parameters: time < 24 hr, dose 200 mg/kg, route oral; conditions: plasma
Homo sapiens [15] = experiment: Toxicity in healthy human assessed as EEG abnormality at 200 mg/kg, po administered as single dose; type: organism-based; parameters: dose 200 mg/kg, route oral; conditions: in vivo
Homo sapiens [16] = experiment: Toxicity in healthy human assessed as fatigue at 200 […], po once daily for 7 days; type: organism-based; parameters: route oral; conditions: in vivo, 168 h
[17] = Tmax in healthy human at 150 […], po once daily for 7 days; type: ADME, organism-based; parameters: dose 150 mg/kg, route oral; conditions: in vivo
Homo sapiens [18] = experiment: Toxicity in healthy human assessed as increase in blood […] at 250 […], po once daily for 7 days; type: organism-based; parameters: route oral; conditions: in vivo, 168 h
[19] = AUC (0 to infinity) in healthy human at 200 mg/kg, po administered as single dose after 1 day; type: ADME, organism-based; parameters: time infinity, dose 200 mg/kg, route oral; conditions: plasma
Homo sapiens [20] = experiment: Cardiotoxicity in healthy human assessed as change in corrected QT interval at 30 mg/kg, po after 10 days by ECG; type: toxicity, organism-based; parameters: dose 30 mg/kg, route oral; conditions: in vivo, 240 h
[21] = Cmax in healthy human at 200 mg/kg, po once daily for 7 days measured after 1 day of last dose; type: ADME, organism-based; parameters: dose 200 mg/kg, route oral; conditions: in vivo
Homo sapiens [22] = experiment: Toxicity in healthy human assessed as fatigue at 250 […], po administered as single dose; type: organism-based; parameters: route oral; conditions: in vivo
[23] = Tmax in healthy human at 200 mg/kg, po once daily for 7 days measured after 1 day of last dose; type: ADME, organism-based; parameters: dose 200 mg/kg, route oral; conditions: in vivo
Homo sapiens [24] = experiment: Toxicity in healthy human assessed as headache at 150 […], po once daily for 7 days; type: organism-based; parameters: route oral; conditions: in vivo, 168 h
Homo sapiens [25] = experiment: Toxicity in healthy human assessed as nausea at 300 […], po administered as single dose; type: organism-based; parameters: route oral; conditions: in vivo
[26] = Cmax in healthy human at 300 mg/kg, po administered as single dose after 1 day; type: ADME, organism-based; parameters: dose 300 mg/kg, route oral; conditions: in vivo
[27] = AUC (0 to 24 hrs) in healthy human at 150 […], po after 10 days; type: ADME, organism-based; parameters: time < 24 hr, dose 150 mg/kg, route oral; conditions: plasma
Homo sapiens [28] = experiment: Toxicity in healthy human assessed as puncture site pain at 300 […], po administered as single dose; type: organism-based; parameters: route oral; conditions: in vivo
[29] = Cmax in healthy human at 200 mg/kg, po once daily for 7 days; type: ADME, organism-based; parameters: dose 200 mg/kg, route oral; conditions: in vivo
[30] = AUC (0 to 24 hrs) in healthy human at 250 mg/kg, po once daily for 7 days measured after 1 day of last dose; type: ADME, organism-based; parameters: time < 24 hr, dose 250 mg/kg, route oral; conditions: plasma
Homo sapiens [31] = experiment: Toxicity in healthy human assessed as headache at 200 […], po administered as single dose; type: organism-based; parameters: route oral; conditions: in vivo
Homo sapiens [32] = experiment: Toxicity in healthy human assessed as fatigue at 150 […], po once daily for 7 days; type: organism-based; parameters: route oral; conditions: in vivo, 168 h
[33] = Tmax in healthy human at 250 mg/kg, po once daily for 7 days; type: ADME, organism-based; parameters: dose 250 mg/kg, route oral; conditions: in vivo
[34] = Tmax in healthy human at 250 mg/kg, po once daily for 7 days measured after 1 day of last dose; type: ADME, organism-based; parameters: dose 250 mg/kg, route oral; conditions: in vivo
Homo sapiens [35] = experiment: Toxicity in healthy human assessed as headache at 300 […], po administered as single dose; type: organism-based; parameters: route oral; conditions: in vivo

AUC at 24 h [1]: 8750 ng·h/mL | Cmax [5]: 474 ng/mL | AUC at 24 h [6]: 6670 ng·h/mL | AUC(0-inf) [10]: 10100 ng·h/mL | AUC at 24 h [14]: 8140 ng·h/mL | Tmax [17]: 1.5 h | AUC(0-inf) [19]: 6050 ng·h/mL | Cmax [21]: 838 ng/mL | Tmax [23]: 1.75 h | Cmax [26]: 1130 ng/mL | AUC at 24 h [27]: 32200 ng·h/mL | Cmax [29]: 949 ng/mL | AUC at 24 h [30]: 5050 ng·h/mL | Tmax [33]: 2 h | Tmax [34]: 1.5 h
Structure (SMILES): COC[C@@H](c1ccc(C(F)(F)F)cc1)N1CCN(C2(C)CCN(C(=O)c3c(C)ncnc3C)CC2)C[C@@H]1C [VICRIVIROC]
Activity (Homo sapiens [2]): 0% | Activity (Homo sapiens [3]): 0% | Activity (Homo sapiens [4]): 0% | Activity (Homo sapiens [7]): 0% | Activity (Homo sapiens [8]): 20% | Activity (Homo sapiens [9]): 0% | Activity (Homo sapiens [11]): 38% | Activity (Homo sapiens [12]): 13% | Activity (Homo sapiens [13]): 38% | Activity (Homo sapiens [15]): 0% | Activity (Homo sapiens [16]): 0% | Activity (Homo sapiens [18]): 10% | Activity (Homo sapiens [20]): Non-toxic | Activity (Homo sapiens [22]): 13% | Activity (Homo sapiens [24]): 50% | Activity (Homo sapiens [25]): 13% | Activity (Homo sapiens [28]): 17% | Activity (Homo sapiens [31]): 0% | Activity (Homo sapiens [32]): 50% | Activity (Homo sapiens [35]): 13%
